Common to all, as to type: cell-based
The test system of assay [1] is AsPC-1 (K-Ras G12D). Kind of assay: CellTiter-Glo cell viability assay, AsPC-1. The settings on record: Homo sapiens, ASPC1, 120 h. The gist of the method:
(§1)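 Luminescence from CellTiter-Glo serves as the viability read-out after cells are treated with compound for 5 days. Each well's signal is divided by the DMSO average and multiplied by 100, and curves are fitted by four-parameter logistic regression.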
(In general: ATP-based viability assays read luminescence as a measure of living cells.)

For another assay, the system named is NCI-H358 (K-Ras G12C). Kind of assay: CellTiter-Glo cell viability assay, H358. The settings on record: Homo sapiens, NCI-H358, 120 h. The gist of the method: as §1
Assay [2] has as its system AsPC-1 (K-Ras G12D). Briefly: Potency assay: pERK in AsPC-1 cells. The following applies: Homo sapiens.
Where [3] appears, read: AsPC-1, K-Ras G12D, 5-day treatment, read-out: AsPC-1 Cell Viability IC50.
Setting [4] is: NCI-H358, K-Ras G12C, 5-day treatment, read-out: H358 Cell Viability IC50.
The mark [5] stands for this setting: ASPC1, AsPC-1 cells, K-Ras G12D, read-out: pERK EC50 (AsPC-1 KRAS G12D).
The mark [6] stands for this setting: read-out: AsPC-1 Cell Viability IC50, AsPC-1, K-Ras G12D, 5-day treatment.
[7] abbreviates: read-out: H358 Cell Viability IC50, NCI-H358, K-Ras G12C, 5-day treatment.
Setting [8] is: ASPC1, read-out: pERK EC50 (AsPC-1 KRAS G12D).

Where two headings read alike, the source gives them in different places.

For `CCn1c(-c2cccnc2[C@H](C)OC)c2c3cc(ccc31)-c1csc(n1)C[C@H](NC(=O)[C@H](C(C)C)N(C)C(=O)N1CCN(C(=O)[C@H]3CN3)C[C@H]1C)C(=O)N1CCC[C@H](N1)C(=O)OCC(C)(C)C2` [Compound 301], the IC50 in the assay on AsPC-1 (K-Ras G12D) [1] (setting [3]) is 100 to 1000 nM; in the assay with NCI-H358 (K-Ras G12C) (setting [4]) it was < 10 nM. For the same compound, the EC50 with AsPC-1 (K-Ras G12D) [2] (setting [5]) was < 5000 nM.
As for `CCn1c(-c2cccnc2[C@H](C)OC)c2c3cc(ccc31)-c1cc(O)cc(c1)C[C@H](NC(=O)[C@H](C(C)C)N(C)C(=O)CN(C)C(=O)[C@@]1(C)CN1)C(=O)N1CCC[C@H](N1)C(=O)OCC(C)(C)C2` [Compound 256], the IC50 is 100 to 1000 nM with AsPC-1 (K-Ras G12D) [1] (setting [6]) and 10 to 100 nM in the assay with NCI-H358 (K-Ras G12C) (setting [7]). In addition, in the assay on AsPC-1 (K-Ras G12D) [2] (setting [8]), the EC50 is < 5000 nM.
For `CCn1c(-c2cccnc2[C@H](C)OC)c2c3cc(ccc31)-c1cc(O)cc(c1)C[C@H](NC(=O)[C@H](C(C)C)N1CC[C@]3(CCN(C(=O)[C@H]4CN4)C3)C1=O)C(=O)N1CCC[C@H](N1)C(=O)OCC(C)(C)C2` [Compound 146], the figures for the IC50 with AsPC-1 (K-Ras G12D) [1] (setting [3]) and in the assay on NCI-H358 (K-Ras G12C) (setting [4]) were 100 to 1000 nM and < 10 nM, respectively. Also, the EC50 in the assay on AsPC-1 (K-Ras G12D) [2] (setting [5]) was < 5000 nM.
Take `CCn1c(-c2cccnc2[C@H](C)OC)c2c3cc(ccc31)-c1cc(O)cc(c1)C[C@H](NC(=O)[C@H](C(C)C)N(C)C(=O)CN(C)C(=O)[C@H]1N[C@H]1C(F)(F)F)C(=O)N1CCC[C@H](N1)C(=O)OCC(C)(C)C2` [Compound 259]: the IC50 was 100 to 1000 nM with AsPC-1 (K-Ras G12D) [1] (setting [6]) and 10 to 100 nM in the assay on NCI-H358 (K-Ras G12C) (setting [7]). Moreover, in the assay on AsPC-1 (K-Ras G12D) [2] (setting [8]), the EC50 is < 5000 nM.
On to `CCn1c(-c2cc(N3CCN(C)CC3)cnc2[C@H](C)OC)c2c3cc(ccc31)-c1cc(O)cc(c1)C[C@H](NC(=O)[C@H](C1CCCC1)N(C)C(=O)CN(C)C(=O)[C@H]1CN1)C(=O)N1CCC[C@H](N1)C(=O)OCC(C)(C)C2` [Example 209, (2R)—N-(2-(((1S)-1-cyclopentyl-2-(((6^3S,4S)-1^1-ethyl-2^5-hydroxy-1^2-(2-((S)-1-methoxyethyl)-5-(4-methylpiperazin-1-yl)pyridin-3-yl)-10,10-dimethyl-5,7-dioxo-6^1,6^2,6^3,6^4,6^5,6^6-hexahydro-1^1H-8-oxa-1(5,3)-indola-6(1,3)-pyridazina-2(1,3)-benzenacycloundecaphane-4-yl)amino)-2-oxoethyl)(methyl)amino)-2-oxoethyl)-N-methylaziridine-2-carboxamide], for which the IC50 with AsPC-1 (K-Ras G12D) [1] (setting [6]) and in the assay with NCI-H358 (K-Ras G12C) (setting [7]) was < 10 nM each time. In addition, the EC50 in the assay on AsPC-1 (K-Ras G12D) [2] (setting [8]) is < 5000 nM.
In the case of `CCn1c(-c2cnccc2COC)c2c3cc(ccc31)-c1cc(O)cc(c1)C[C@H](NC(=O)[C@H](C(C)C)N(C)C(=O)CN(C)C(=O)[C@@H]1N[C@H]1c1ccc(OC)cc1)C(=O)N1CCC[C@H](N1)C(=O)OCC(C)(C)C2` [Compound 96], the IC50 in the assay on AsPC-1 (K-Ras G12D) [1] (setting [6]) and with NCI-H358 (K-Ras G12C) (setting [7]) was 1000 to 10000 nM in each case. Also, in the assay on AsPC-1 (K-Ras G12D) [2] (setting [8]), the EC50 is < 5000 nM.
For the compound `CCn1c(-c2cccnc2[C@H](C)OC)c2c3cc(ccc31)-c1cc(O)cc(c1)C[C@H](NC(=O)[C@H](C(C)C)N(C)C(=O)CN(C)C(=O)[C@H]1N[C@H]1C(C)C)C(=O)N1CCC[C@H](N1)C(=O)OCC(C)(C)C2` [Compound 265], the IC50 with AsPC-1 (K-Ras G12D) [1] (setting [6]) lay in the range of 100 to 1000 nM; in the assay with NCI-H358 (K-Ras G12C) (setting [7]), 10 to 100 nM. The EC50 with AsPC-1 (K-Ras G12D) [2] (setting [8]) is < 5000 nM.
Take `CCn1c(-c2cccnc2[C@H](C)OC)c2c3cc(ccc31)-c1cc(O)cc(c1)C[C@H](NC(=O)[C@H](C(C)C)N(C)C(=O)CN(C)C(=O)[C@]1(C)CN1)C(=O)N1CCC[C@H](N1)C(=O)OCC(C)(C)C2` [Compound 257]: the IC50 in the assay on AsPC-1 (K-Ras G12D) [1] (setting [6]) is 100 to 1000 nM; in the assay on NCI-H358 (K-Ras G12C) (setting [7]), 10 to 100 nM. For the same compound, the EC50 with AsPC-1 (K-Ras G12D) [2] (setting [8]) was < 5000 nM.
Take `CCn1c(-c2cccnc2[C@H](C)OC)c2c3cc(ccc31)-c1cc(O)cc(c1)C[C@H](NC(=O)[C@H](C1CCCC1)N1CC[C@@]3(CCN(C(=O)[C@H]4CN4)C3)C1=O)C(=O)N1CCC[C@H](N1)C(=O)OCC(C)(C)C2` [Compound 174]: the IC50 in the assay with AsPC-1 (K-Ras G12D) [1] (setting [3]) was 100 to 1000 nM; with NCI-H358 (K-Ras G12C) (setting [4]), < 10 nM. Also, the EC50 with AsPC-1 (K-Ras G12D) [2] (setting [5]) is < 5000 nM.

One may read the IC50 as the concentration needed to halve the response being measured. As usually defined, the EC50 is the concentration that produces a half-maximal response.

(Values after patent publication US11739074B2, “Ras inhibitors” (Revolution Medicines, Inc., priority 2019, dated 2023).)
